Assay: Human HepG2 cell viability assay in 384 well format
Type: toxicity, cell-based
Design: dose 125 nL, time 70.5 hour; concentration not given beside the values
Settings: HepG2 cells, read-out: Inhibition

Compound | cytotoxicity at 70.5 h
O=C(N[C@@H]1CN(Cc2ccoc2)C[C@@H]2CCCO[C@@H]21)C1CCC1 | -11.2%
CC(=O)N1CCOC2(CCN(C(=O)C3CC3)CC2)C1 | -10.3%
Cn1nnc2c1C(COCC1CC1)CN(C(=O)CC1=CCCCC1)C2 (stereo not drawn) | -2%
Cc1nc(C)c2c(n1)CCN(C(=O)C1(C#N)CC1)CC2 | -1.89%
COc1nn(C)c2c1CCCN(C(=O)c1c[nH]cn1)C2 | -1.78%
Cn1nc(C#N)c2c1CN(C(=O)c1c[nH]cn1)CCC2 | -7.05%
Cc1nc2c(c(NC3CC3)n1)CCN(C(=O)C1(C#N)CC1)CC2 | -16.3%
COCC1CN(S(=O)(=O)c2ccccc2)Cc2ncnn2C1 (stereo not drawn) | -6.59%
COCC1CN(S(=O)(=O)c2cccs2)Cc2ncnn2C1 (stereo not drawn) | -12.8%
Cc1ccc(N2CCCC3(CCN(C(=O)CC(F)(F)F)C3)C2)nn1 (stereo not drawn) | -10.2%
CCN1CCC2(CC1)CC(NC(=O)c1c[nH]cn1)c1ccccc1O2 (stereo not drawn) | -6.71%
CCOCC1CN(S(=O)(=O)C2CC2)Cc2nn(C)cc21 (stereo not drawn) | -5.98%
Cc1nc([C@@H]2C[C@H]3CN(Cc4ccc5c(c4)OCO5)C[C@H]3O2)no1 | -10.1%
CN(C)CC(=O)N1Cc2nnn(C)c2C(COCC2CC2)C1 (stereo not drawn) | -11.8%
Cn1nnc2c1C(COCC1CC1)CN(C(=O)C1=CCCC1)C2 (stereo not drawn) | -9.91%
O=C(NC1CCc2c(ccc(=O)n2CC2CC2)C1)c1cscn1 (stereo not drawn) | 18.1%
Cc1cccc(-c2nnn3c2COC(CNS(=O)(=O)C2CC2)C3)c1 (stereo not drawn) | -9.41%
O=C(c1cccnc1)N1C[C@@H]2CN(CCN3CCCC3)C(=O)[C@@H]2C1 | -6.24%
Cc1nn(CCNS(=O)(=O)NCc2ccccc2)c(C)c1Cl | -6.81%
CCn1ncnc1CN1CCc2[nH]cnc2C1c1ccccn1 (stereo not drawn) | 14.3%
COCCN(C)C(C(=O)O)c1ccc2ccccc2c1 (stereo not drawn) | 6.21%
Cc1ncc2c(c1-c1noc(-c3cscn3)n1)CCNC2 | 7.48%
O=C1CCC2(CCNCC2)CN1Cc1nnc2ccccn12 | -5.01%
Cc1nc(NC(=O)N2CCCC(C(C)(C)O)C2)nn1C (stereo not drawn) | -6.42%
CCc1nc(C)c([C@H]2CN(C)C[C@@H]2C(=O)NCc2ccccc2OC)[nH]1 | -2.21%
Nc1nc2c(c(N3CCN(C(=O)c4cccs4)CC3)n1)CCCC2 | -2.27%

Compound | cytotoxicity at 70.5 h
CCNC(=O)[C@@H]1C[C@H](NC(=O)c2ccc(C)s2)CN1Cc1ccc(C)o1 | 16.1%
O=C(CNCc1ccccc1Cn1cccn1)Nc1cnccn1 | -9.54%
CN(C)C[C@@H]1CN(C(=O)Cc2ccc3ccccc3c2)C[C@@H]1CO | -8.64%
Cc1ccc(-c2nc(CN3C[C@@H](C)NC[C@@H]3C)c(C)o2)s1 | -11.5%
CCN(CCO)C[C@@H]1CN(c2cc(C(F)(F)F)cc(C)n2)C[C@@H]1CO | -8.43%
COc1cc(C(C)=O)ccc1OC12CCCN(CC1)C2 (stereo not drawn) | 12.8%
COc1ccc(CN2CCCC(N3CCCC3)C2)cc1Cn1cncn1 (stereo not drawn) | 10.6%
COc1cccc(N2CCN(C(=O)C(O)CC(C)C)CC2=O)c1 (stereo not drawn) | -2.41%
Cn1cc(CNCC2(N3CCCCC3)Cc3ccccc3C2)cn1 | -4.33%
Cc1cccc(-c2nc(N)nc3c2CN(C(=O)C2CCCC2)C3C)c1 (stereo not drawn) | -18.6%
Cc1cnccc1N1CCCN(C(=O)CCCn2ccnc2C)CC1 | -6.13%
CCc1cnc(N)nc1NCCc1ccc(OC)cc1OC | -0.653%
c1ccc2c(c1)CN(c1ncnc3sc4c(c13)CCNC4)CCO2 | 0.0341%
Clc1cc(N2CCN3CCCCC3C2)nc2[nH]ccc12 (stereo not drawn) | -0.311%
CSc1ccc(C(C(=O)O)N2CCC(CO)CC2)cc1 (stereo not drawn) | 25.1%
COc1cc(CN(Cc2ccccn2)CC(C)C)cc2c1OCO2 | -0.968%
COc1ccccc1C(O)CNc1nccc(-c2ccc(C)nc2C)n1 (stereo not drawn) | -14%
CCc1nc(CCNS(=O)(=O)c2cccc(C(=O)N(C)CC)c2)cs1 | -16%
CCn1ccnc1CN1CCN(Cc2ccc(C)o2)[C@@H]2CS(=O)(=O)C[C@@H]21 | -4.31%
C[C@@H]1CN(C(=O)c2cn(CCN3CCCCC3)nn2)C[C@H](C)O1 | -0.236%
CCC[C@H]1CN(c2cncc(C(=O)N3CCCCC3)n2)C[C@@H]1N(C)C | -3.35%
CCc1c(C)nc(C)nc1N1C[C@@H](CN(C)CCN(C)C)[C@@H](CO)C1 | -9.98%
CCc1noc(CN(CC)Cc2cc3ccc(C)cc3[nH]c2=O)n1 | 7.76%
C[C@@H]1CN(c2nc3c(cc2C(N)=O)CCC3)C[C@@]1(O)C1CCC1 | -11.3%
Cc1c(C(=O)N2CCC3(CCCNC3=O)C2)sc2nc[nH]c(=O)c12 (stereo not drawn) | -7.46%
CC(C)c1nnsc1CNC(=O)C1CCN(C(=O)C2CCC2)CC1 | -5.12%

Compound | cytotoxicity at 70.5 h
Cc1ccc(C)c2c(O)cc(CNCC(=O)N3CCCC3)nc12 | 22%
CCCc1cncnc1N1CCC2(CCC(=O)N(CCCO)C2)CC1 | -10.1%
Cc1nccn1CCCN1CCC2(CCC(=O)N(CC3CC3)C2)CC1 | -7.09%
COCC(=O)N1CCC2(CCCN(Cc3ccc(Cl)cc3)CC2)CC1 | 44.6%
Oc1cccc(CN2C[C@H]3CC[C@@H]2CN(Cc2ccncc2)C3)c1 | -12.3%
CCCn1ncc(CN(Cc2cccnc2)Cc2ccsc2)c1C | 16.8%
CO[C@H]1C[C@@H](O)C12CCN(CCCOc1ccc(C(N)=O)cc1)CC2 | -2.22%
COc1ccc2c(c1)OCC(CNC(=O)c1cnc(O)cn1)C2 (stereo not drawn) | -3.99%
CN1CCc2c(CNC(=O)c3nccn3C)cncc2C1 | -0.526%
O=C(COC[C@]12COC[C@H]1CN(C1CCC1)C2)N1CCCC1 | 3.04%
CN(C)C1CCN(C(=O)c2ccnn2-c2ccc3ccccn23)CC1 | -5.01%
CC(C)CNC(=O)N1CCC2(CC1)OC(C(N)=O)Cn1ccnc12 (stereo not drawn) | -4.1%
O=C(c1ccc2[nH]ccc2c1)N1CC[C@@H]2CN(CC3CC3)CCO[C@@H]2C1 | -7.61%
O=C(NC1CC1)[C@@H]1CCO[C@@H]2CCN(CC3CCC3)C[C@@H]21 | -11.4%
COCCN1CCOCC2(CCN(c3cnccn3)CC2)C1 | 8.46%
Cc1cccc(CN2CCC3(CCC(CC(=O)N(C)C)CC3)CC2)n1 | -8.22%
CC(C)N1CCOCC2(CCN(c3cnccn3)CC2)C1 | -11.1%
Cc1ccc(CN2CCC3(CCCN3S(C)(=O)=O)CC2)s1 | -11.8%
Cc1ccc(CN2CCCC3(CCCC(=O)N3C)C2)s1 (stereo not drawn) | -9.33%
O=C(c1ccccn1)N1CCC2(CCCN(c3nncs3)C2)C1 (stereo not drawn) | -9.42%
COCCN1CCC2(CC1)CC(N1CCOCC1)c1cc(C)ccc12 (stereo not drawn) | 4.82%
CN(Cc1ccccn1)C1CCC[C@@H]2CN(CC3CC3)C[C@H]12 (stereo partly drawn) | 17.7%
C[C@@H]1CN(C2CCOC2)C[C@]12CCN(Cc1cccnc1)C2=O (stereo partly drawn) | -10.6%
c1cncc(COCc2cncc3c2CCN(Cc2ccoc2)C3)c1 | -9.45%
CC(C)N1[C@H](Cn2cncn2)C[C@@H]2CN(Cc3nccn3C)CC[C@@H]21 | -6.18%
CN1CCN(Cc2cccnc2)C(=O)C12CCN(CC1CCOC1)CC2 (stereo not drawn) | -6.06%
